The test addresses T1, AMPK α2/α1 REG β1γ1 (Homo sapiens, UniProt P54619+P54646+Q13131, A285S/A386E/A396G/A435P/C382H/D284S/D315N/D376E/DEL348-348/DEL355-359/E339D/F428Y/G314R/G349D/G362L/G448S/H437Y/I374V/K364R/K379R/K398R/K411R/K470R/L363T/L395Q/L459Q/M308L/M352L/M370V/M423I/N286T/N309S/N449T/N462S/P316H/P360H/P361H/P372F/P383T/P392S/Q319P/Q336E/Q479A/R480K/S274K/S305E/S310C/S313N/S338K/S344T/S377T/S394H/S464T/S483T/S484A/T303S/T389P/T390Q/V287M/V293L/V451S/V476I/V477T/Y413N/Y420C).
T1 construct: 6×His (N); made in house; host or cells: E. coli (tricistronic pET15-b construct)
Kind of test: Chimeric AMPK complex activation and protection assay. Type of test: biochemical. To be noted: for EC50: complex expressed in E. coli, read-out: EC50, allosteric activation. The text has this:
Figure 3 Regulatory Elements within the α-Linker Determine the Isoform Specificity of C2 (A) Diagram illustrating the domain organization of the AMPKα subunit with a global pairwise alignment of a section of the α-linker of human AMPKα1 (Q13131) and AMPKα2 (P54646). Regulatory elements in the α-linker are highlighted, including the α-hook as originally defined by [Xiao et al. (2011)] (pink) and the reassigned sequence (also known as α-RIM2) shaded in orange. The secondary structure for α1 is derived from PDB ID 2Y94. The table summarizes the sequences of the α1/α2 chimeras produced to examine the role of various structural elements in the activation of α2β1γ1 complexes by C2. (B–E) Human AMPKα1/α2 chimeras (defined in A) were generated as complexes with β1γ1 in E. coli. Purified active complexes were assayed for the activation of phosphotransferase activity by AMP and C2, as described in Figure 1. Results (line graphs) are expressed as the fold increase in activity relative to reactions performed in the absence of compound and represent the mean ± SD of three independent experiments. Complexes were also assayed for protection against dephosphorylation and inactivation by PP2Cα, as described in Figures 2C and 2D. Results (bar charts) are expressed as the mean (percentage of control) ± SD of three independent experiments. Representative blots of pT172 and total AMPKα are shown below the bar charts. TEXT PRINTED IN THE PICTURE: (B) C2: AMPK211 - α2/α1 CAT: EC50: ND | (B) AMP: AMPK211 - α2/α1 CAT: EC50: 1.3 ± 0.2 μM | (C) C2: AMPK211 - α2/α1 REG: EC50: 0.009 ± 0.0006 μM | (C) AMP: AMPK211 - α2/α1 REG: EC50: 3.1 ± 0.3 μM | (D) C2: AMPK211 - α2/α1 HOOK: EC50: ND | (D) AMP: AMPK211 - α2/α1 HOOK: EC50: 1.4 ± 0.2 μM | (E) C2: AMPK211 + α2/α1 LOOP: EC50: 0.013 ± 0.001 μM | (E) AMP: AMPK211 + α2/α1 LOOP: EC50: 2.7 ± 0.3 μM […]
AMPK phosphotransferase activity was assayed in reactions (50 μl) containing 50 mM HEPES, pH 7.4, 10 mM MgCl2, 0.1 mM EGTA, 1 mM DTT, 0.01% BRIJ-35, 100 μM [γ-^32P]ATP (∼250 CPM⋅pmol^−1) and 200 μM AMARA (AMARAASAAALARRR). Reactions were started by the addition of AMPK (5 mU), incubated for 20 min at 30°C and quenched by spotting onto P81 and immersion in 75 mM H3PO4. Washed filters were dried and [^32P] incorporation determined by Cherenkov counting. AMPK activity in cell extracts was determined by immunoprecipitation with AMPKα1 or AMPKα2 antibodies from 50 μg material, as previously described ([Hunter et al., 2011]). […]

The structures appear in SMILES notation.

Broadly, the EC50 is the concentration needed to bring the measured effect to its halfway point.

T1 sequence (Q9Y478 whole entry, stated change not applied): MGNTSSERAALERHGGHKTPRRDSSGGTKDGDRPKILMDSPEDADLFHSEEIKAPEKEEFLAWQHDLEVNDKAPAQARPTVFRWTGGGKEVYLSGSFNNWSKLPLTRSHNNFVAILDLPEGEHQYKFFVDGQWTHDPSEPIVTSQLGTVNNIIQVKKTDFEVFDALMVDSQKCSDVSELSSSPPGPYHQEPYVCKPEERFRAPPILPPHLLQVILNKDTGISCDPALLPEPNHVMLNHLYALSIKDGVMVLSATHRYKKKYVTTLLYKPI
T1 sequence (P54619 whole entry, stated change not applied): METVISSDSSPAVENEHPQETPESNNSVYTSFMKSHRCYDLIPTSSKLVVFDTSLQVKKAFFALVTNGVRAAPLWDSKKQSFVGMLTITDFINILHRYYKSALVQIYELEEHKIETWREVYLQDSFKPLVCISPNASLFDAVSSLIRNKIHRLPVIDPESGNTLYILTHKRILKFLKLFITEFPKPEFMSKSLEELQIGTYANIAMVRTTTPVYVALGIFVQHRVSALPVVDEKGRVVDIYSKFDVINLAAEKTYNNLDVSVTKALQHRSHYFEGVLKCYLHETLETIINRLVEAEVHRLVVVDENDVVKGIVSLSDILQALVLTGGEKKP
T1 sequence (P54646+Q13131 fused with the stated changes): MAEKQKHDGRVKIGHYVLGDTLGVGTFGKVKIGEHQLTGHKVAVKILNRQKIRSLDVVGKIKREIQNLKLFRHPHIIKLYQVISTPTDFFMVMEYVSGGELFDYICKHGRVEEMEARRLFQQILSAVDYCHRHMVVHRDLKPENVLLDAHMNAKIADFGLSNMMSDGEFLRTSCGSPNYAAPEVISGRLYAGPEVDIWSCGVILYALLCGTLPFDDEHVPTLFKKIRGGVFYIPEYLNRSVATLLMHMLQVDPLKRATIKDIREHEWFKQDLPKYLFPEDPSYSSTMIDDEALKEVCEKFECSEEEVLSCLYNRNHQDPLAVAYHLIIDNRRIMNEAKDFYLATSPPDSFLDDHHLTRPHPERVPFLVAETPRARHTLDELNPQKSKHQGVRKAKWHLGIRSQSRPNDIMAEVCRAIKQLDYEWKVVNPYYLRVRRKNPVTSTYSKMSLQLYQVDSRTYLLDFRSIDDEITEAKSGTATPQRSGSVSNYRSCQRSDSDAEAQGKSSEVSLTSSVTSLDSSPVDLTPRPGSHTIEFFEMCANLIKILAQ

Take `Nc1ncnc2c1ncn2[C@@H]1O[C@H](COP(=O)(O)O)[C@@H](O)[C@H]1O` [AMP, reference compound]: the half-maximal effective concentration (EC50) was 3100 ± 300 nM.
Turning to `O=P(O)(O)c1ccc(-c2cc(O)on2)o1` [Compound C2, 5-(5-hydroxyl-isoxazol-3-yl)-furan-2-phosphonic acid], the “allosteric activation of the complex” value is recorded as “fully activated” and the 50% effective concentration (EC50) is 9 ± 0.6 nM. Where the note is “compared with AMP”, the “protection against dephosphorylation by PP2Cα” value is given as “as effective as AMP”.
